For this test, the target named is T1, Pfu-SRP54 (Pyrococcus furiosus, UniProt Q8U070).
T1 construct: full-length, pET28b, thrombin-cleavable His6 tag removed, E. coli BL21(DE3)-Rosetta2; free of SRP RNA and SRP19; two monomers per asymmetric unit (non-crystallographic dimer); finger loop L346-I365 disordered
T1 sequence (Q8U070 1-443): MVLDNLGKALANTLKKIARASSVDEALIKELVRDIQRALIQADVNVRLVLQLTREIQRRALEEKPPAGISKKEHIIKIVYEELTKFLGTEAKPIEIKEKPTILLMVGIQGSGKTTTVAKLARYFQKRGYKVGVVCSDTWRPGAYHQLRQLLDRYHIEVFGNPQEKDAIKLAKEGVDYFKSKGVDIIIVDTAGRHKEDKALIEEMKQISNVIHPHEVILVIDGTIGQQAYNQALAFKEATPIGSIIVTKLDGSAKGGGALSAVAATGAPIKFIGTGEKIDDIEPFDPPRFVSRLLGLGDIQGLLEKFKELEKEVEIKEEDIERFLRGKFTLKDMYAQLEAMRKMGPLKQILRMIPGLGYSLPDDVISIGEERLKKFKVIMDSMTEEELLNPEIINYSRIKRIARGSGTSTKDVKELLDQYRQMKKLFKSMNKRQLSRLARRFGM
The test is described as follows: X-ray crystal structure, […] Å. To be noted: co-crystallised with 10 mM GDP; 1.0-1.3 M lithium sulfate, 100 mM sodium acetate pH 5.0; room temperature; GTPase active site in G domain, no clear Mg ion. The test is classed as binding.

We go through 1 molecule from article PMC2568955, “Structures of SRP54 and SRP19, the Two Proteins that Organize the Ribonucleic Core of the Signal Recognition Particle from Pyrococcus furiosus” (PLoS ONE, 2008).

`Nc1nc2c(ncn2[C@@H]2O[C@H](COP(=O)(O)OP(=O)(O)O)[C@@H](O)[C@H]2O)c(=O)[nH]1` [GDP]: the “X-ray crystal structure, 2.5 Å” value is “Pfu-SRP54 was co-crystallized in presence of GDP, and the nucleotide is clearly identified”.
